{"source": "patent US8088892B2", "about": "“Inhibitors of proteins from the Rho-GEF family” (Centre National de la Recherche Scientifique (C.N.R.S.), priority 2002, dated 2012)", "assay_type_in_all_cases": "cell-based", "key": {"[1]": {"system": "ectopically expressed TrioGEFD2 in PC12 cells", "assay": "NGF-induced neurite outgrowth in PC12 cells expressing TrioGEFD2", "conditions": "PC12 co-transfected with TrioGEFD2, NGF 50 ng/ml 16 hours", "method": "FIG. 5C represents the inhibition by TRIPα of the TrioGEFD2 effect in neuronal morphology. Immunofluorescence images of PC12 cells co-transfected with HA-TrioGEFD2 and either GFP-TRIPα (panels d, e, f) or GFP alone panels a, b, c) are shown. After 48 hours of expression, cells were treated for 16 hours with NGF (nerve growth factor) (50 ng/ml) and fixed. Expression of GFP and GFP-TRIPα was directly visualised (a, d) whereas overexpressed TrioGEFD2 was detected using the 12CA5 anti-HA antibody followed by AMCA-conjugated anti-mouse IgG (b, e). Filamentous actin was stained with Rhodamine-conjugated Phalloidin (c, f). Scale bar: 20 μm.\n(§1) Cells were transfected with HA-tagged TrioGEFD2 (left side of the figure), myc-tagged KalGEFD2 (middle of the figure) or RhoAV14 (a constitutively active mutant of RhoA) (right side of the figure), and with either GFP-TRIPα (white bars), GFP-TRIPβ (hatched bars) or GFP alone (black bars). Cells were processed as described in FIG. 5C and the number of co-transfected cells with neurites was counted.\n(§2) Numerous reports have established Rho-GTPases as key regulators of neuronal morphology (Luo, 2000). In neuronal cell lines, activation of RhoG, Rac and Cdc42 induces neurite outgrowth, while RhoA stimulation antagonises this effect by promoting neurite retraction (Katoh et al., 2000; Kozma et al., 1997; Yamaguchi et al., 2001). The PC12 cell line is a useful cellular model for studying Nerve Growth Factor (NGF)-induced neuronal differentiation. PC12-E2 cells were plated on collagen-coated 12 mm coverslips as described previously (Estrach et al., 2002) and transfected with the Lipofectamine Plus reagent (Life Technologies) according to the manufacturer's instructions. After transfection and differentiation with NGF (Promega, 50 ng/ml in DMEM medium supplemented with 0.5% horse serum (HS)) for 16 hours, PC12 cells were fixed and permeabilised as described (Estrach et al., 2002). […] Images were recorded using a Hamamatsu CCD camera. All transfections were repeated at least three times, and an average of 200 cells was counted each time. […]"}, "KalGEFD2 in PC12 cells": {"system": "KalGEFD2 in PC12 cells", "assay": "NGF-induced neurite outgrowth in PC12 cells expressing KalGEFD2", "conditions": "PC12 co-transfected with KalGEFD2, NGF 50 ng/ml", "description": "as §1\nas §2, with “instructions.” for “instructions. After transfection and differentiation with NGF (Promega, 50 ng/ml in DMEM medium supplemented with 0.5% horse serum (HS)) for 16 hours, PC12 cells were fixed and permeabilised as described (Estrach et al., 2002).”"}, "PC12 cells": {"system": "PC12 cells", "assay": "NGF-induced neurite outgrowth", "conditions": "NGF 50 ng/ml, 1 to 24 hours", "method": "PC12 were transfected with GFP-TRIPα (lack squares) or GFP (white diamonds) and subjected to a time-course exposure to NGF (50 ng/ml). At each time-point cells were fixed and the number of transfected cells with neurites was counted from at least 200 cells.\n(§3) Since Trio is an activator of RhoA and is expressed in PC12 cells (Estrach et al., 2002), it was analysed whether TRIPα could interfere with serum-induced neurite retraction in NGF-differentiated PC12 cells. […] After NGF treatment, cells were subjected to serum addition (DMEM medium supplemented with 10% HS and 5% fetal calf serum (FCS)) from 0 to 15 min (FIG. 6A). Cells were then fixed and permeabilised (Estrach et al., 2002) and observed as described in FIG. 5. Cells with neurites are defined as cells with neurites of at least twice the length of the cell body.\nHowever, since the NGF treatment was performed for 16 hours, it was still possible that the effect of TRIPα on the NGF-differentiation signal was masked by the long NGF exposure. To test this hypothesis, PC12 cells expressing GFP-TRIPα or […] were subjected to a time-course exposure to NGF (50 ng/ml) for 1 to 24 hours."}, "[2]": {"system": "TrioGEFD2-mediated RhoA activation", "assay": "RhoA activity assay (Rhotekin RBD pull-down) in COS cells", "conditions": "COS cells co-transfected, 48 hours", "description": "FIG. 5B represents the inhibitory effect of TRIPα on TrioGEFD2-mediated RhoA activation in intact cells using the RhoA activity assay, COS cells were transfected with GFP-TRIPα (left line), TrioGEFD2 (middle line) or both (right line). Cell lysates were subjected to GST-pulldown using the recombinant RBD (RhoA binding domain) fragment of the RhoA-specific effector Rhotekin. The presence of the GTP-bound form of RhoA and of the total RhoA protein was detected using a monoclonal anti-RhoA antibody and is represented in the upper two panels. GFP-TRIPα and TrioGEFD2 expression in the cell lysates is shown in the lower two panels.\nQuantification of the RhoA activity assay is shown in the right part of the figure. The y-axis represents the ratio between active RhoA and total RhoA, in arbitrary units.\nThe Inventors then wanted to assess the inhibition by TRIPα of TrioGEFD2-mediated activation of endogenous RhoA in intact cells. To do so, the RhoA activity assay was used to detect the active GTP-bound form of RhoA (Ren et al., 1999). Briefly, COS cells were transfected as described in FIG. 5A with TrioGEFD2 in absence or in the presence of GFP-TRIAPα. 48 hours after transfection, cell lysates were subjected to GST-pull down using 20 μg of the recombinant RBD (RhoA binding domain) fragment of the RhoA-specific effector Rhotekin, that binds only to the activated GTP-bound form of RhoA."}, "[3]": {"system": "NGF-differentiated PC12 cells", "assay": "Serum-induced neurite retraction", "conditions": "15 min after serum (10% HS and 5% FCS); NGF 50 ng/ml 16 hours", "method": "FIG. 6A represents histograms quantifying the effects of GFP-TRIPα or GFP on serum induced neurite retraction in NGF-differentiated PC12 cells. The X-axis represents the time after serum addition in minutes and the Y-axis represents the percentage of transfected cells with neurites.\nCells were transfected with GFP-TRIPα (white bars) or GFP (black bars) and differentiated with NGF (50 ng/ml). Serum was added and neurite retraction was followed for 15 minutes. The number of transfected cells with neurites was counted from at least 200 cells in 3 independent experiments.\nas §3"}}, "note": "Where no end group is shown, it is not given here."}
{"substance": "GFP-TRIPα: variable region of TRIAPα (TRIPα) fused to GFP, expressed from pEGFP-C3 plasmid (AREGADGAICGYNLATLVMLGPSERVFCPLCEPCSSDIYELM; cysteine pairing not given here; also: fused to GFP (carrier not in chain))", "values": [{"measurement": "Reversion of TrioGEFD2 inhibition of NGF-induced neurite outgrowth", "setting": "[1]", "result": "reverted the Trio-dependent inhibition"}, {"measurement": "percentage of co-transfected cells with neurites", "setting": "[1]", "result": 45, "unit": "%"}, {"measurement": "Effect on KalGEFD2 inhibition of NGF-induced neurite extension", "setting": "KalGEFD2 in PC12 cells", "result": "similarly inhibited by KalGEFD2 either with or without"}, {"measurement": "Effect on NGF-induced neurite outgrowth, time course", "setting": "PC12 cells", "result": "responded to NGF treatment more quickly than the control cells"}, {"measurement": "Inhibition of TrioGEFD2-mediated RhoA activation in intact cells", "setting": "[2]", "result": "significantly inhibited"}, {"measurement": "percentage of transfected cells with neurites after serum addition", "setting": "[3]", "result": 32, "unit": "%"}]}
